Experimental data as given in US20160214972A1, “COMPOUNDS AND METHODS FOR THE TARGETED DEGRADATION OF ANDROGEN RECEPTOR” (Arvinas, Inc., priority 2015, published 2016).
Entries after “also recorded” stand apart in the source; their conditions may differ.

Tests used:
VCaP xenograft = assay: Tumor growth inhibition in VCaP xenograft model; type: in vivo; conditions: castrated CB17 scid mice with VCaP tumors; enzalutamide PO, QD, 30 mpk; Example 163 IP, QD, 30, 10 and 3 mpk
From the text: FIG. 6. Tumor growth inhibition in VCaP xenograft model. VCaP cells were implanted into CB17 scid mice subcutaneously. Once the tumors were palpable, the mice were castrated, leading to temporary tumor stasis.
VCaP cells were implanted into CB17 scid mice subcutaneously. Once the tumors were palpable, the mice were castrated, leading to temporary tumor stasis.

prostate = assay: Prostate involution in C57B6 mouse model; type: in vivo; conditions: 12-week old male C57BL/6 mice; IP, QD, 1 and 3 mpk for 10 days
From the text: FIG. 5. Prostate involution in C57B6 mouse model.

Androgen Receptor = Androgen Receptor ELISA assay (PathScan AR ELISA) in LNCaP and/or VCaP cells; type: cell-based; conditions: highest percentage of Androgen Receptor degradation observed
AR = target: T1, AR (Homo sapiens, UniProt P10275+P40337, T878A); assay: AR degradation of PROTAC is E3 ligase dependent (LNCaP cells); type: cell-based; conditions: 24 hours
T1 construct: endogenous in cells; host or cells: LNCaP cells
T1 sequence (P10275 whole entry T878A): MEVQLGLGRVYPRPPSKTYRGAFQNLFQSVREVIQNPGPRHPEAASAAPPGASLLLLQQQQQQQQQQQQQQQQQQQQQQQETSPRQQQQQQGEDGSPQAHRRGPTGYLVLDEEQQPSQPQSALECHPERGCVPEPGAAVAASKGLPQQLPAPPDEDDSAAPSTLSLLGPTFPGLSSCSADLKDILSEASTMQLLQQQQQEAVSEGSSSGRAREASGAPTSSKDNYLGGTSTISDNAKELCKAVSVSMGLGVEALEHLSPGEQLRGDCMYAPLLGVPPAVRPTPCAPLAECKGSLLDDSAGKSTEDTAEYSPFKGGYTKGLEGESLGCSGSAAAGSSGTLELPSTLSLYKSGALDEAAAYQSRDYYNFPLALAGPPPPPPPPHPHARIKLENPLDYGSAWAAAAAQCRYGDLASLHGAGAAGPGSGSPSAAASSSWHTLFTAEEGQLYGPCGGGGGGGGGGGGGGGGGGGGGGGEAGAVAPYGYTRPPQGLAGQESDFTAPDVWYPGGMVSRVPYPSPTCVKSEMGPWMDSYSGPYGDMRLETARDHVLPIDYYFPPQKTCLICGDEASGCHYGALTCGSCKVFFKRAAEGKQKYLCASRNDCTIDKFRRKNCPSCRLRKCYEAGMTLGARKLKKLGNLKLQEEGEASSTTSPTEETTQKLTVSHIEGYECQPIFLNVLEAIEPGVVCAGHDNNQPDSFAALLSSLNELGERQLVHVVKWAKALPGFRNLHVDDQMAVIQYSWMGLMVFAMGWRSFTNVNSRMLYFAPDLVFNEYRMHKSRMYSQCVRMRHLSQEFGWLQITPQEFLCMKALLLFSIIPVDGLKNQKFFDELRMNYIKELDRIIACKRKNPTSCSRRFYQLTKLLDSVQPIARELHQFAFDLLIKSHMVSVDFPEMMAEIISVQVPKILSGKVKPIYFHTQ
T1 sequence (P40337 whole entry): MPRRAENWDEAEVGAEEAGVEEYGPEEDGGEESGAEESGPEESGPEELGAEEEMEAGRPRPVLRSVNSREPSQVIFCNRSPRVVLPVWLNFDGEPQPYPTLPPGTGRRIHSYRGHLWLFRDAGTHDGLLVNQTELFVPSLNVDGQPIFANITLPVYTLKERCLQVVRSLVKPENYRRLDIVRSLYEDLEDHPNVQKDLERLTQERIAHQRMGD
T1 sequence (Q15369 whole entry partner): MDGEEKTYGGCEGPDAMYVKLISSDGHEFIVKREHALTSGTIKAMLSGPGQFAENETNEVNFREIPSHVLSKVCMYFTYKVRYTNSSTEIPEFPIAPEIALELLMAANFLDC
T1 sequence (Q15370 whole entry partner): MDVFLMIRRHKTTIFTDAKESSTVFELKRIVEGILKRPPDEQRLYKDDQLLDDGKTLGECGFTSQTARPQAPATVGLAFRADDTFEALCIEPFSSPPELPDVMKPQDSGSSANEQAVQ
T1 sequence (Q13617 whole entry partner): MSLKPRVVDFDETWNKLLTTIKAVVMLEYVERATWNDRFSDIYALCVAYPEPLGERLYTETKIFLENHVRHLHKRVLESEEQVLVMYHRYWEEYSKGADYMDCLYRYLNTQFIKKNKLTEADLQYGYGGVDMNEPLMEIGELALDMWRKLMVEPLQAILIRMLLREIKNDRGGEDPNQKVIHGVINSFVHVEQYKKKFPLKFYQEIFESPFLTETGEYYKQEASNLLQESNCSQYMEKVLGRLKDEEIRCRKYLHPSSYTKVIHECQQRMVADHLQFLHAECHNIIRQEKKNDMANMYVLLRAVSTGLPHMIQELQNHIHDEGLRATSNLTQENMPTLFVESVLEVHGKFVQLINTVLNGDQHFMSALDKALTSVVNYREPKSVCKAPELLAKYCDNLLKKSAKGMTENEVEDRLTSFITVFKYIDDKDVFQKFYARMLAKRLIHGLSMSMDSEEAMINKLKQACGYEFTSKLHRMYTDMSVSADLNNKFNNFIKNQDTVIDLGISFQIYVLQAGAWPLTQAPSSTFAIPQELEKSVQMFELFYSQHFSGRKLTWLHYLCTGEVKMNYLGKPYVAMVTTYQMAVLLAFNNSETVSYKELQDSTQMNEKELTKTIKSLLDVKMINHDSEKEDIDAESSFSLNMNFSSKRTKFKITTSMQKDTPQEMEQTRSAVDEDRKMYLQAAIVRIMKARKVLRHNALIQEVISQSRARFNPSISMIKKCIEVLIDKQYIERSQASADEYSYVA
T1 sequence (P62877 whole entry partner): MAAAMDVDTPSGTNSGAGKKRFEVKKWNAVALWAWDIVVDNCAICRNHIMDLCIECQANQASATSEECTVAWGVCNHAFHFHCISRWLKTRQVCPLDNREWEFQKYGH
From the text: FIG. 7A and FIG. 7B. AR degradation of PROTAC is E3 ligase dependent.

[1] = test system: LNCaP cells transduced with AR F876L construct; assay: Anti-proliferation in LNCaP F876L (CellTiterGlo); type: cell-based; conditions: Charcoal Stripped Serum media, 7 days
Experimental: FIG. 3. Anti-proliferation in LNCaP F876L. […] LNCaP cells transduced with AR F876L construct were cultured in Charcoal Stripped Serum containing media.
LNCaP cells transduced with AR F876L construct were cultured in Charcoal Stripped Serum containing media. […] CellTiterGlo reagent (Promega) was employed to assess proliferation.

CNC(=O)c1ccc(N2C(=S)N(c3ccc(C#N)c(C(F)(F)F)c3)C(=O)C2(C)C)cc1F [enzalutamide, reference compound]
tumor growth inhibition (VCaP xenograft): Tumor growth inhibition was observed in all treatment arms

Cc1ncsc1-c1ccc(CNC(=O)[C@@H]2C[C@@H](O)CN2C(=O)[C@@H](NC(=O)COCCCCOc2ccc(C(=O)N[C@H]3C(C)(C)[C@H](Oc4ccc(C#N)c(Cl)c4)C3(C)C)cc2)C(C)(C)C)cc1 [Example 163, (2S,4R)-1-[(2S)-3,3-dimethyl-2-{2-[4-(4-{[trans-3-(3-chloro-4-cyanophenoxy)-2,2,4,4-tetramethylcyclobutyl]carbamoyl}phenoxy)butoxy]acetamido}butanoyl]-4-hydroxy-N-{[4-(4-methyl-1,3-thiazol-5-yl)phenyl]methyl}pyrrolidine-2-carboxamide]
tumor growth inhibition (VCaP xenograft): Tumor growth inhibition was observed in all treatment arms | prostate weights (prostate involution) (prostate): significant reduction in prostate weights; also recorded: significant prostate involution in mice at very low doses

Cc1ncsc1-c1ccc(CNC(=O)[C@@H]2C[C@@H](O)CN2C(=O)[C@@H](NC(=O)COCCOCCOc2ccc(-c3ccc(N4C(=S)N(c5ccc(C#N)c(C(F)(F)F)c5)C(=O)C4(C)C)cc3)cc2)C(C)(C)C)cc1 [Example 67, (2S,4R)-1-((S)-2-(2-(2-(2-(4′-(3-(4-cyano-3-(trifluoromethyl)phenyl)-5,5-dimethyl-4-oxo-2-thioxoimidazolidin-1-yl)biphenyl-4-yloxy)ethoxy)ethoxy)acetamido)-3,3-dimethylbutanoyl)-4-hydroxy-N-(4-(4-methylthiazol-5-yl)benzyl)pyrrolidine-2-carboxamide]
LNCaP Dmax (%) (Androgen Receptor): 72.1%

Cc1ncsc1-c1ccc(CNC(=O)[C@@H]2C[C@@H](O)CN2C(=O)[C@@H](NC(=O)COCCCOCCCCCOc2ccc(N3C(=S)N(c4ccc(C#N)c(C(F)(F)F)c4)C(=O)C3(C)C)cc2)C(C)(C)C)cc1 [Example 1, (2S,4R)-1-((S)-2-(2-(3-(5-(4-(3-(4-cyano-3-(trifluoromethyl)phenyl)-5,5-dimethyl-4-oxo-2-thioxoimidazolidin-1-yl)phenoxy)pentyloxy)propoxy)acetamido)-3,3-dimethylbutanoyl)-4-hydroxy-N-(4-(4-methylthiazol-5-yl)benzyl)pyrrolidine-2-carboxamide]
AR degradation in LNCaP cells (AR): significant degradation of AR | AR degradation in LNCaP cells in the presence of VHL E3 ligase ligand compound B (AR; 10 uM compound B): greatly diminishes the AR degradation activity | proliferation of LNCaP F876L cells (agonist activity) [1]: did not exhibit agonist activity; also recorded: Anti-proliferation in LNCaP F876L cells observed
